One experiment relates to rabbit aorta rings. Nature of the experiment: Vasorelaxant action in vitro (phenylephrine-contracted rabbit aorta rings). Conditions: Oryctolagus cuniculus; concentration reducing the phenylephrine-induced contraction of rabbit aorta rings by 50%; DMSO 0.1%. The procedure: B-1. Vasorelaxant Action In Vitro
Rabbits are stunned by a blow to the neck and exsanguinated. The aorta is removed, freed from adhering tissue and divided into rings of width 1.5 mm, which are placed individually under prestress into 5 ml organ baths with carbogen-sparged Krebs-Henseleit solution at 37° C. having the following composition (each mM): sodium chloride 119; potassium chloride: 4.8; calcium chloride dihydrate: 1; magnesium sulfate heptahydrate: 1.4; potassium dihydrogenphosphate: 1.2; sodium hydrogencarbonate: 25; glucose: 10. The contractile force is determined with Statham UC2 cells, amplified and digitalized using A/D transducers (DAS-1802 HC, Keithley Instruments Munich), and recorded in parallel on linear recorders. To obtain a contraction, phenylephrine is added to the bath cumulatively in increasing concentration. After several control cycles, the substance to be studied is added in increasing dosage each time in every further run, and the magnitude of the contraction is compared with the magnitude of the contraction attained in the last preceding run. This is used to calculate the concentration needed to reduce the magnitude of the control value by 50% (IC50 value). The standard administration volume is […]; the DMSO content in the bath solution corresponds to 0.1%.

Experiment [1] relates to recombinant guanylate cyclase reporter cell line. Kind of experiment: Effect on a recombinant guanylate cyclase reporter cell line. To be noted: recombinant guanylate cyclase reporter cell line (Wunder et al. 2005). Type of experiment: cell-based. The procedure: B-2. Effect on a Recombinant Guanylate Cyclase Reporter Cell Line
The cellular action of the inventive compounds is determined on a recombinant guanylate cyclase reporter cell line as described in F. Wunder et al., Anal. Biochem. 339, 104-112 (2005).

In the case of `Nc1nc(-c2nn(Cc3ccccc3F)c3ncccc23)nc2c1C1(CCOC1)C(=O)N2` (stereo not drawn) [Example 4, 4′-amino-2′-[1-(2-fluorobenzyl)-1H-pyrazolo[3,4-b]pyridin-3-yl]-4,5-dihydrospiro[furan-3,5′-pyrrolo[2,3-d]pyrimidine]-6′(7′H)-one], in the experiment on rabbit aorta rings, the concentration for half-maximal inhibition (IC50) is 24 nM. Further, the “MEC (minimal effective concentration)” value in experiment [1] stood at 0.003 µM.
`CC1(C)C(=O)Nc2nc(-c3nn(Cc4ccccc4F)c4ncccc34)nc(N)c21` [Example 2, 4-amino-2-[1-(2-fluorobenzyl)-1H-pyrazolo[3,4-b]pyridin-3-yl]-5,5-dimethyl-5,7-dihydro-6H-pyrrolo[2,3-d]pyrimidin-6-one] gave an IC50 with rabbit aorta rings of 48 nM. Besides, the “MEC (minimal effective concentration)” value in experiment [1] amounted to 0.001 µM.
Turning to `CC1(C)C(=O)Nc2nc(-c3nn(Cc4ccccc4F)c4ncc(F)cc34)nc(N)c21` [Example 3, 4-amino-2-[5-fluoro-1-(2-fluorobenzyl)-1H-pyrazolo[3,4-b]pyridin-3-yl]-5,5-dimethyl-5,7-dihydro-6H-pyrrolo[2,3-d]pyrimidin-6-one], the IC50 with rabbit aorta rings was determined as 9.3 nM. Besides, the “MEC (minimal effective concentration)” value in experiment [1] was 0.001 µM.

Values taken from patent US8765769B2, “Ring-fused 4-aminopyrimidines and use thereof as stimulators of soluable guanylate cyclases” (Bayer Intellectual Property GmbH, priority 2010, dated 2014).
